Measured values reported in PMC6709486, “Safety, Tolerability, Pharmacokinetics, and Drug Interaction Potential of SPR741, an Intravenous Potentiator, after Single and Multiple Ascending Doses and When Combined with β-Lactam Antibiotics in Healthy Subjects” (Antimicrobial Agents and Chemotherapy, 2019).

Assay: clinical
Conditions: in vivo, iv
Excerpt: The drug-drug interaction study was a phase 1, single-center, multiarm, open-label, randomized, three-period crossover study. The objective was to evaluate the DDI potential and the PK of SPR741 coadministered with each of three partner antibiotics as well as the DDI and PK effects of three partner antibiotics administered alone and with SPR741. The study comprised a screening phase (day −28 to day −2), three treatment arms (day 1 to day 8 for each arm), and an end-of-study follow-up (day 9). Each subject participated in screening, one treatment arm, and the end-of-study follow-up. The maximum duration of participation for each subject was approximately 37 days. Subjects remained in the clinical unit from the day before dosing (day −1) to 24 h after the third and last dose period (day 8).
The DDI study consisted of three treatment arms with three dosing periods in each arm (days 1, 4, and 7). In random sequence, subjects received a single dose of study treatments with a 2-day washout period between each assigned treatment. In treatment arm 1, subjects received 400 mg of SPR741 i.v. over 1 h, 400 mg of SPR741 i.v. over 1 h plus 1.0 g of ceftazidime i.v. over 1 h, and 1.0 g of ceftazidime i.v. over 1 h. In treatment arm 2, subjects received 400 mg of SPR741 i.v. over 1 h, 400 mg of SPR741 i.v. over 1 h plus 4.5 g of piperacillin-tazobactam i.v. over 1 h, and 4.5 g of piperacillin-tazobactam i.v. over 1 h.
For both studies, maximum plasma concentration (Cmax), area under the concentration-time curve from time zero to the last measurable time point (AUC0-t), area under the concentration-time curve from time zero to infinity (AUC0-inf), time to maximum concentration (Tmax), terminal elimination rate constant (kel), terminal half-life (t1/2), terminal clearance (CL), and volume of distribution (V) were determined. PK parameters were determined using WinNonlin Phoenix, version 6.4.
For the SAD phase, blood samples were obtained predose (within 10 min), at 30 min following the start of infusion, at the end of infusion, and at 75, 90, 105, 120, and 150 min and 3, 4, 5, 6, 8, 10, 12, and 24 h following the start of infusion. For the MAD phase, blood was obtained predose (within 10 min), at 30 min following the start of infusion, at the end of infusion, and at 90 and 150 min and 3, 4, 5, 6, and 8 h following the start of infusion (day 1, first dose; day 14, last dose). Five additional blood samples were obtained at 10, 12, 24, 36, and 48 h following the start of infusion of the last dose (morning of day 14). For the DDI study, blood samples for determining plasma concentrations of SPR741 and each partner antibiotic were obtained predose (within −10 min), at 30 min, and at 1 h, 1 h 15 min, 1 h 30 min, 1 h 45 min, 2, 4, 8, 12, and 24 h postdose for each dose period. Plasma samples for drug concentration measurements were analyzed using a validated high-pressure liquid chromatography tandem mass spectrometry (HPLC-MS/MS) method. In brief, samples were spiked with a stable isotope-labeled internal standard and then extracted by protein precipitation before injection onto the HPLC-MS/MS system. Unique transitions were monitored for all test articles and internal standards. Plasma concentrations below the limit of quantitation were reported as 0.
In the SAD/MAD study, geometric means were calculated for AUC and Cmax values. Analyses using linear models were performed to assess dose proportionality (both single dose and multiple dose), time dependence, accumulation, and attainment of steady state (multiple dose). Dose proportionality was assessed using linear models for the SAD and MAD cohorts separately. […] Point estimates and 90% confidence intervals (CIs), using the residual mean square error obtained from the ANOVA, were constructed for the comparisons between treatments. The point and CI estimates were back-transformed to give estimates of the ratios (percentages) of the geometric LSMs and corresponding 90% CIs.

AUC0-inf, geometric LSM, reference treatment	AUC0-t	AUC0-τ, geometric LSM, reference treatment	AUC(0-inf)	CL	Cmax	Cmax, geometric LSM, reference treatment	Tmax	V	kel	Structure (SMILES)
228,000 h·ng/ml	240,000 ± 33,000 (13.7) ng·h/ml	228,000 h·ng/ml	240,000 ± 33,000 (13.7) ng·h/ml	19.1 ± 3.0 (15.8) liters/h	154,000 ± 23,500 (15.2) ng/ml	145,000 ng/ml	1.0 ± 0 (1.2) h	60.7 ± 10.6 (17.4) liters	0.32 ± 0.02 (5.6) 1/h	CCN1CCN(C(=O)N[C@@H](C(=O)N[C@@H]2C(=O)N3[C@@H]2SC(C)(C)[C@@H]3C(=O)O)c2ccccc2)C(=O)C1=O [Piperacillin, piperacillin]
163,000 h·ng/ml	162,000 ± 22,400 (13.8) ng·h/ml	163,000 h·ng/ml	163,000 ± 22,500 (13.8) ng·h/ml	6.3 ± 0.8 (12.8) liters/h	70,200 ± 5,790 (8.2) ng/ml	70,300 ng/ml	1.0 ± 0 (0) h	24.0 ± 3.1 (12.8) liters	0.26 ± 0.01 (3.1) 1/h	CC(C)(O/N=C(\C(=O)N[C@@H]1C(=O)N2C(C(=O)[O-])=C(C[n+]3ccccc3)CS[C@H]12)c1csc(N)n1)C(=O)O [Ceftazidime, ceftazidime]
30,200 h·ng/ml	32,000 ± 5,060 (15.8) ng·h/ml	30,200 h·ng/ml	32,000 ± 5,060 (15.8) ng·h/ml	16.1 ± 3.0 (18.4) liters/h	18,500 ± 2,610 (14.1) ng/ml	17,600 ng/ml	1.0 ± 0 (1.2) h	41.6 ± 6.5 (15.6) liters	0.40 ± 0.12 (30.8) 1/h	C[C@]1(Cn2ccnn2)[C@H](C(=O)O)N2C(=O)C[C@H]2S1(=O)=O [Tazobactam, tazobactam]

Same assay, conditions: in vivo, iv

t1/2	Structure (SMILES)
2.2 ± 0.1 (5.7) h	CCN1CCN(C(=O)N[C@@H](C(=O)N[C@@H]2C(=O)N3[C@@H]2SC(C)(C)[C@@H]3C(=O)O)c2ccccc2)C(=O)C1=O [Piperacillin, piperacillin]
2.7 ± 0.1 (3.1) h	CC(C)(O/N=C(\C(=O)N[C@@H]1C(=O)N2C(C(=O)[O-])=C(C[n+]3ccccc3)CS[C@H]12)c1csc(N)n1)C(=O)O [Ceftazidime, ceftazidime]
1.9 ± 0.4 (22.4) h	C[C@]1(Cn2ccnn2)[C@H](C(=O)O)N2C(=O)C[C@H]2S1(=O)=O [Tazobactam, tazobactam]
